The values below are quoted from earlier work in US10576065B2, “Pharmaceutical composition containing rifaximin alpha and delta” (Sandoz AG, priority 2016, dated 2020).

Read-outs that look alike come from different tables or passages of the source.

As a reminder, the AUC is the area under the concentration-time curve, a measure of exposure. In general, Cmax refers to the maximum level reached in the sampled fluid or tissue.

For data set [1] the following is noted: human.
Details of data set [2]: AUC: concentration or dose not given beside the values. To be noted: dogs.
Setting [3] is: film coated tablets, 400 mg (Blandizzi et al.), listed as Prior art alpha.
[4] abbreviates: film coated tablets, 400 mg (Blandizzi et al.).

As to `CO[C@H]1/C=C/O[C@@]2(C)Oc3c(C)c(O)c4c(O)c(c5c(nc6cc(C)ccn65)c4c3C2=O)NC(=O)/C(C)=C\C=C\[C@H](C)[C@H](O)[C@@H](C)[C@@H](O)[C@@H](C)[C@H](OC(C)=O)[C@@H]1C` [Alpha, rifaximin], the AUC is 5.77 ng·h/mL in data set [1] (200 mg), 13.03 ng·h/mL in data set [1] (400 mg) and 17 ng·h/mL in data set [2]. Moreover, the maximum concentration (Cmax) in data set [1] (200 mg) was 1.59 ng/mL; in data set [1] (400 mg), 3.54 ng/mL; in data set [1] (setting [3]), 3.54 ng/mL; in data set [2], 2.6 ng/mL. Moreover, the AUCt in data set [1] (setting [3]) is 13.03 ng·h/mL.

Take `CO[C@H]1/C=C/O[C@@]2(C)Oc3c(C)c(O)c4c(O)c(c5c(nc6cc(C)ccn65)c4c3C2=O)NC(=O)/C(C)=C\C=C\[C@H](C)[C@H](O)[C@@H](C)[C@@H](O)[C@@H](C)[C@H](OC(C)=O)[C@@H]1C` [Beta, rifaximin]: in data set [2], the AUC was 12 ng·h/mL and the Cmax is 1.1 ng/mL.

In the case of `CO[C@H]1/C=C/O[C@@]2(C)Oc3c(C)c(O)c4c(O)c(c5c(nc6cc(C)ccn65)c4c3C2=O)NC(=O)/C(C)=C\C=C\[C@H](C)[C@H](O)[C@@H](C)[C@@H](O)[C@@H](C)[C@H](OC(C)=O)[C@@H]1C` [Delta, rifaximin], in data set [2], the AUC was 830 ng·h/mL and the peak concentration (Cmax) was 308.3 ng/mL.

As to `CO[C@H]1/C=C/O[C@@]2(C)Oc3c(C)c(O)c4c(O)c(c5c(nc6cc(C)ccn65)c4c3C2=O)NC(=O)/C(C)=C\C=C\[C@H](C)[C@H](O)[C@@H](C)[C@@H](O)[C@@H](C)[C@H](OC(C)=O)[C@@H]1C` [Epsilon, rifaximin], in data set [2], the area under the curve (AUC) is 77 ng·h/mL and the highest concentration (Cmax) is 6.9 ng/mL.

Take `CO[C@H]1/C=C/O[C@@]2(C)Oc3c(C)c(O)c4c(O)c(c5c(nc6cc(C)ccn65)c4c3C2=O)NC(=O)/C(C)=C\C=C\[C@H](C)[C@H](O)[C@@H](C)[C@@H](O)[C@@H](C)[C@H](OC(C)=O)[C@@H]1C` [Gamma, rifaximin]: in data set [2], the exposure (AUC) is 4,894 ng/ml × h and the peak concentration (Cmax) is listed as 1,085.1 ng/ml.

`CO[C@H]1/C=C/O[C@@]2(C)Oc3c(C)c(O)c4c(O)c(c5c(nc6cc(C)ccn65)c4c3C2=O)NC(=O)/C(C)=C\C=C\[C@H](C)[C@H](O)[C@@H](C)[C@@H](O)[C@@H](C)[C@H](OC(C)=O)[C@@H]1C` [amorphous, rifaximin]: in data set [1] (200 mg), the AUC was 16.13 ng·h/mL and the maximum concentration (Cmax) was 3.70 ng/mL. In data set [1] (400 mg), the AUC is 68.80 ng·h/mL and the maximum concentration (Cmax) was 15.01 ng/mL. For the same compound, in data set [1] (setting [4]), the AUCt was 68.80 ng·h/mL and the Cmax was 15.01 ng/mL.
